# Columns and labels:
# Assay type in all cases: in vivo
# [1] = test system: tobacco budworm (Heliothis virescens); experiment: Method E: Heliothis virescens screen; conditions: concentration 100 ppm; egg dip; after 6 days
# Method: METHOD E: Heliothis Virescens Screen
# A Petri dish whose bottom is covered with filter paper and which contains about 5 ml of culture medium is prepared. Pieces of filter paper with about 30, 24-hour-old eggs of the tobacco budworm (Heliothis virescens) are dipped into an aqueous solution of the formulated preparation to be examined for about 5 seconds and subsequently placed into the Petri dish. A further 200 μl of the aqueous solution are dropped over the culture medium. The Petri dish is closed and then kept at about 25° C. in a climatized chamber. After 6 days storage, the effect of the preparation on the eggs and the larvae which may have hatched from these is determined. Compound number 1-1 gave at least 50% control of tobacco budworm with the concentration at 100 ppm.
# [2] = test system: Rhipicephalus sanguineus (Brown dog tick); experiment: Method D: screening method to test contact activity against Rhipicephalus sanguineus; conditions: test concentration 10 ppm; filter paper contact; L1 larvae; 24 hours after application
# Method: METHOD D: Screening method to test contact activity against Rhipicephalus sanguineus (Brown dog tick)
# Solutions of the test compounds were dropped onto filter paper, dried and the filter paper placed into test tubes and infested with 20-30 larvae (L1) of Rhipicephalus sanguineus and the tubes closed with a clip. The treated Rhipicephalus sanguineus were held in a climate chamber (25° C., 90% RH) and the percentage efficacy assessed 24 hours after application in comparison with the untreated control.
# Nilaparvata lugens = experiment: Method C: Rice leafhopper screen; conditions: foliar, 144 h, read-out: control of Nilaparvata lugens (mortality among leafhopper larvae)
# Method: METHOD C: Rice leafhopper screen
# The leaves of rice plants are dipped for 5 seconds into an aqueous solution of the formulated preparation to be examined. After the solution has run off, the rice plants are placed in a Petri dish and populated with about 20 larvae (L3 stage) of the rice leafhopper species Nilaparvata lugens. The Petri dish is closed and then stored in a climatized chamber (16 hours of light/day, 25° C., 40-60% relative atmospheric humidity). After 6 days storage, the mortality among the leafhopper larvae is determined. Compound number 1-1 gave at least 60% control of Nilaparvata lugens with the concentration of 10 ppm.
# [3] = test system: Frankliniella occidentalis; experiment: Method F: Thrip (Frankliniella occidentalis) screen; conditions: concentration 100 ppm; French bean leaf dip; mixed population; after 7 days
# Method: METHOD F: Thrip (Frankliniella occidentalis) Screen
# French bean plants are cut at the base of the stem and transferred into bottles filled with tap water. The leaves are then dipped for 5 seconds into an aqueous solution of the formulated preparation to be examined. After the solution has run off, the leaves are infested with 20-30 individuals of a mixed population of flower thrips (Frankliniella occidentalis) and then stored in a controlled-environment cabinet at approx. 25° C. After 7 days storage, the effect of the preparation on the thrips is determined. Compound number 1-1 gave at least 70% control of Frankliniella occidentalis at the concentration of 100 ppm.
# [4] = test system: Ctenocephalides felis (Cat flea); experiment: Method A: screening method to test systemicity against Ctenocephalides felis (artificial dog test, treated bovine blood); conditions: test concentration 1 ppm in bovine blood; 10 adults; assessment at 24 and 48 hours
# Method: METHOD A: Screening method to test systemicity of compounds against Ctenocephalides felis (Cat flea)
# A test container was filled with 10 adults of Ctenocephalides felis. A glass cylinder was closed on one end with parafilm and placed on top of the test container. The test compound solution was then pipetted into bovine blood and added to the glass cylinder. The treated Ctenocephalides felis were held in this artificial dog test (blood 37° C., 40-60% relative humidity; Ctenocephalides felis 20-22° C., 40-60% relative humidity) and assessment performed at 24 and 48 hours after application.
# [5] = test system: Diabrotica undecimpunctata (southern corn rootworm); experiment: Method B: Diabrotica undecimpunctata (southern corn rootworm) screen; conditions: concentration 10 ppm; eggs on filter paper with maize seed; assessed 6 days after application
# From the text: METHOD B: Diabrotica undecimpunctata (southern corn rootworm) screen
# Two days before application, seeds of maize were soaked in water under warm conditions to elicit fast germination. One day before application, eggs of Diabrotica undecimpunctata were transferred to one half of a Japanese filter paper placed in a plastic petri dish. Afterwards, a sprouted maize seed was placed on a moistened pad beside the filter paper. Three drops of 200 microlitres of test compound solution were carefully pipetted onto the egg. The remainder of the solution was placed on the maize and then the Petri dish was closed. The treated eggs in the Petri dishes were held in a climate chamber for 6 days. The compound efficacy (percentage of dead eggs and/or larvae in comparison to untreated control) was assessed 6 days after application using a binocular microscope. Compound number 1-1 gave at least 60% control with the concentration at 10 ppm.
Structure (SMILES),control of tobacco budworm (effect on eggs and larvae) [1],control (percentage efficacy in comparison with untreated control) [2],mortality at 10 ppm (Nilaparvata lugens),control of Frankliniella occidentalis [3],control of Ctenocephalides felis [4],control (percentage of dead eggs and/or larvae in comparison to untreated control) [5]
"C=CN(C)c1c(S(=O)(=O)C(F)(F)F)c(C#N)nn1-c1c(Cl)cc(C(F)(F)F)cc1Cl [Compound 1-1, 1-[2,6-dichloro-4-(trifluoromethyl)phenyl]-5-[methyl(vinyl)amino]-4-[(trifluoromethyl)sulfonyl]-1H-pyrazole-3-carbonitrile]",at least 50%,at least 50%,≥ 60%,at least 70%,at least 50%,at least 60%
"CN(CCI)c1c(S(=O)(=O)C(F)(F)F)c(C#N)nn1-c1c(Cl)cc(C(F)(F)F)cc1Cl [Intermediate Example 2, 1-[2,6-dichloro-4-(trifluoromethyl)phenyl]-5-[(2-iodoethy)(methyl)amino]-4-[(trifluoromethyl)sulfonyl]-1H-pyrazole-3-carbonitrile]",–,–,–,–,at least 70%,–
